Measured values from patent EP0936867B1, “BENZOYLPHENYLUREA INSECTICIDES AND METHODS OF USING CERTAIN BENZOYLPHENYLUREAS TO CONTROL COCKROACHES, ANTS, FLEAS, AND TERMITES” (Dow AgroSciences LLC, priority 1996, dated 1998).

Assays:
Format in all cases: in vivo
[1] = test system: German cockroach 2nd instars (Blattella germanica); assay: Continuous, low-dose ingestion exposure (treated cornmeal)
[2] = test system: German cockroach 2nd instars (Blattella germanica); assay: Limited ingestion exposure (48 hr) to treated cornmeal
Excerpt: German cockroach 2nd instars (Blattella germanica)
Limited ingestion exposure (48 hr) to treated cornmeal Rates: 1, 10, 100, 1000, 10000 ppm

[3] = test system: Cat Flea (Ctenocephalides fells); assay: Continuous exposure of larvae to treated media, impact on subsequent adult emergence
Excerpt: Cat Flea (Ctenocephalides fells)
Continuous exposure of larvae to treated media, impact on subsequent adult emergence Rates: 0.1, 1.0, 10, 100, 1000 ppm

[4] = test system: Subterranean Termite (Reticulitermes flavipes); assay: Continuous exposure (56 days) to treated paper
Excerpt: (§1) Subterranean Termite (Reticulitermes flavipes)
Continuous exposure (56 days) to treated paper Rates: 0.78, 3.12, 12.5, 50, 200 ppm

[5] = test system: Subterranean Termite (Reticulitermes flavipes); assay: Limited exposure (7 days), mortality determined at 14, 28, 42 and 56 days
Excerpt: as §1
Limited exposure (7 days) with mortality determined at 14, 28, 42, and 56 […]

[6] = test system: Pharaoh Ant (Monomorium pharaonis); assay: Laboratory ant bait study, 3-4 day exposure to bait, brood reduction; conditions: concentration tested 0.1%
Protocol: (§2) Laboratory ant bait studies were carried out with Red Imported Fire Ant (RIFA) (Solenopsis invicta) and Pharaoh Ant (Monomorium pharaonis). Chitin synthesis inhibitors, such as the compounds of the invention, control ants by killing the molting larvae and/or pupae and potentially preventing the hatching of eggs. Because adult workers are not affected, control is measured by effects on the brood. The studies involved 3-4 day exposure to bait. These limited exposure studies more accurately represent real world bait availability than continuous exposure.

[7] = test system: Red Imported Fire Ant (RIFA) (Solenopsis invicta); assay: as above
Protocol: as §2

Daphnia = assay: Activity against Daphnia, 48 hr exposure to treated water
Excerpt: 48 hr exposure to treated water

Row | Structure (SMILES) | LC50 (ppm) 21 days [1] | LC50 (ppm) 42 days [1] | LC50 (ppm) 21 days [2] | LC50 (ppm) 42 days [2] | LC50 (ppm) [3] | LC90 (ppm) [3] | LT50 (days) for 200 ppm trt [4] | LC50 (ppm) 35 days [4] | LC50 (ppm) 56 days [4] | LT50 (days) for 10000 ppm treatment [5] | Time to Achieve 50% Brood Reduction ([6]; 3-4 day exposure to bait) | Percent brood reduction achieved at end of study ([6]; at 13 wks) | Time to Achieve 50% Brood Reduction ([7]; concentration tested 0.1%) | Time to Achieve 90% Brood Reduction ([7]; concentration tested 0.1%) | LC50 (ppb) in water (Daphnia) | Time to Achieve 50% Brood Reduction ([7]; concentration tested 0.25%) | Time to Achieve 90% Brood Reduction ([7]; concentration tested 0.25%)
1 | O=C(NC(=O)c1c(F)cccc1F)Nc1cc(Cl)c(OC(F)(F)C(F)C(F)(F)F)c(Cl)c1F (stereo not drawn) [Compound 1] | < 2.2 ppm | <0.78 ppm | < 22.2 ppm | < 9.1 ppm | 2.8 ppm | 22 ppm | 27.6 days | 31.2 ppm | < 0.78 ppm | 23.7 days | 4 wks | 70% | 2 wks | 3 wks | 5.0 ppb | – | –
2 | O=C(NC(=O)c1c(F)cccc1F)Nc1cc(Cl)c(OC(F)(F)C(F)F)c(Cl)c1 [hexaflumuron, reference compound] | > 200 ppm | > 200 ppm | > 10,000 ppm | > 10,000 ppm | 65.7 ppm | 333.5 ppm | 33.8 days | > 200 ppm | 1.3 ppm | 32.9 days | – | – | – | – | 68.1 ppb | 4 wks | 10 wks
3 | CCN(C(=O)NC(=O)c1c(F)cccc1F)c1cc(Cl)c(OC(F)(F)C(F)C(F)(F)F)c(Cl)c1F (stereo not drawn) [Compound 2, N-[3,5-Dichloro-2-fluoro-4-(1,1,2,3,3,3-hexafluoropropoxy)phenyl]-N'-(2,6-difluorobenzoyl)-N-ethylurea] | 0.35 ppm | 0.26 ppm | 21.1 ppm | 12.8 ppm | 12.7 ppm | 18.6 ppm | – | < 0.78 ppm | < 0.78 ppm | – | – | – | – | – | – | – | –
4 | CCN(C(=O)Nc1cc(Cl)c(OC(F)(F)C(F)C(F)(F)F)c(Cl)c1F)C(=O)c1c(F)cccc1F (stereo not drawn) [Compound 3, N-[3,5-Dichloro-2-fluoro-4-(1,1,2,3,3,3-hexafluoropropoxy)phenyl]-N'-(2,6-difluorobenzoyl)-N'-ethyl urea] | 8.0 ppm | 1.5 ppm | – | – | – | – | – | – | – | – | – | – | – | – | > 100 ppb | – | –
